Patent US8058258B2, “Methods for cancer therapy and stem cell modulation” (Agency for Science, Technology and Research, priority 2006, dated 2011)
Where a SMILES comes first, the peptide text is derived from it. [ ]: non-standard residue; d: D form. The star is where a group is joined. Nle = CCCC[C@H](N)C(=O)O; Nva = CCC[C@H](N)C(=O)O; Cbz = O=C(OCc1ccccc1)*

B1: SUZ12 siRNA: siRNA targeting SUZ12 mRNA; stem-loop RNA from oligonucleotides SEQ ID NO: 1 and 2 (nucleic acid)
chain 1: GATCCCCGTCGCAACGGACCAGTTAATTCAAGAGATTAACTGGTCCGTTGCGACTTTTTGGAAA
chain 2: TCGATTTCCAAAAAGTCGCAACGGACCAGTTGATCTCTTGAATTAACTGGTCCGTTGCGACGGG
modifications: expressed or natural sequence; the letters are possibly those of the target site

Columns and labels:
Type in all cases: cell-based, human
[1] = tested on: EZH2 and SUZ12 protein levels in MCF-7 cells; assay: Proteosome inhibitor rescue of 3-deazaneplanocin-induced PRC2 depletion (Western blot); conditions: 3-deazaneplanocin 18 h then MG132 (5 μM), LLNL (50 μM) or MG115 (20 μM) for 8 h
Protocol: FIG. 1C depicts the effect of 3-deazaneplanocin in the presence of proteosome inhibitors on EZH2 and SUZ12 protein levels. MCF-7 cells were treated with 3-deazaneplanocin for 18 h, followed by the addition of proteosome inhibitor MG132 (5 μM), LLNL (50 μM), MG115 (20 μM) […] for 8 h. Cells were harvested for Western blot analysis of EZH2 and SUZ12.
Cell pellets were first lysed in RadioImmuno Precipitation Assay (RIPA) buffer, consisting of an aqueous solution of 25 mM Tris-HCl pH 7.6, 150 mM NaCl, 1% Nonidet-P 40 (NP-40), 1% sodium deoxycholate and 0.1% sodium dodecylsulfate (SDS), before further sonicated using a tissue homogeniser to release all the proteins. Equal amounts of protein were separated on SDS-polyacrylamide gels and transferred to polyvinylidene difluoride (PVDF) membranes. The blots were probed with antibodies against: EED (07-368), SUZ12 (07-379), SUV39H1 (07-550), BMI1 (05-637), tri-methylated H3-K27 (07-449), tri-methylated H3-K9 (07-442) and Acetyl-Histone H3 (06-599), and were purchased from Upstate. EZH2 (AC22) and Histone H3 (3H1) were from Cell Signaling. Antibodies against DNA methyl-transferases DNMT1 and DNMT3B were purchased from Alexis Biochemicals.
It has previously been reported that the stability of PRC2 proteins is regulated through proteosome-mediated mechanism. It was therefore tested whether the depletion of PRC2 proteins by 3-deazaneplanocin results from the protein degradation. MCF-7 cells were treated with 3-deazaneplanocin in the presence or absence of three individual proteosome inhibitors MG132, LLNL, and MG115 to test if these treatments would rescue 3-deazaneplanocin-induced PRC2 depletion.

MCF-7 cells = assay: Microarray gene expression analysis (Illumina BeadChip) in MCF-7 cells
Protocol: (§1) Cells were maintained in DMEM supplemented with 10% fetal bovine serum with glutamine, penicillin, and streptomycin. For drug treatment, cells were seeded the day before the drug treatment. Cells were treated with 5 μM 3-Deazaneplanocin A or 2 μM 5-aza-2′-deoxycytidine (5-AzaC; Sigma) for 72 hours and trichostatin A (TSA; Sigma) at 100 nM for 24 hours. For co-treatment of cells with 5-AzaC and TSA, 5-Aza was added for 48 hours and followed by TSA for 24 hours.
The Smartpool siRNA duplexes of selected PRC2 targets and the non-targeting control were purchased from Dharmacon (Lafayett, Colo.). […] Cells were transfected with 50 nM final concentration of siRNA duplexes using Lipofectamine 2000 (Invitrogen) following the manufacturer's instructions.
Total RNA was isolated from cell lines using Trizol (Invitrogen) and was converted to cDNA using an RNA Amplification kit (Ambion). The microarray hybridisation was performed using the Illumina Gene Expression BeadChip (Illumina) and data analysis was performed using GeneSpring software from Agilent Technologies.
The effects on gene expression were analysed using an Illumina Gene Expression BeadChip. […] To be inclusive for the subsequent analysis, all 1402 genes were considered to be potential PRC2 target genes.
To identify the PRC2 targets specifically repressed in breast cancer cells, the expression profiles of the 140 putative PRC2 target genes in MCF-7 cells and MCF10A cells were compared by gene clustering analysis (FIG. 4C).

[2] = tested on: PRC2 target genes TGFBI, KRT17, FBXO32, ANXA8, DLX2; assay: Real-time RT-PCR of representative PRC2 targets in MCF-7 cells
Protocol: I: MCF-7 cells were untreated or treated with 3-deazaneplanocin (DZNep), 5-azacytidine (5-AzaC) or a combination of 5-azacytidine and trichostatin A (AZA+TSA), and RNA was isolated for gene expression analysis.
as §1
Total RNA was isolated from cell lines using Trizol (Invitrogen) and was converted to cDNA using an RNA Amplification kit (Ambion). […] Quantitative real-time PCR was performed on a PRISM 7900 sequenced detector (Applied Biosystems) using TaqMan probes (Applied Biosystems). Samples were normalized to the levels of 18S ribosomal RNA.
The array results were further confirmed by real-time RT-PCR for representative PRC2 targets.

Row | Molecule | downregulation of EZH2 and SUZ12 protein levels in response to 3-deazaneplanocin [1] | also measured
1 | CC(C)C[C@@H](C=O)NC(=O)[C@H](CC(C)C)NC(=O)[C@H](CC(C)C)NC(=O)OCc1ccccc1 [MG132] (Cbz-Leu-Leu-Leu-aldehyde) | prevented the downregulation | –
2 | CCC[C@@H](C=O)NC(=O)[C@H](CC(C)C)NC(=O)[C@H](CC(C)C)NC(=O)OCc1ccccc1 [MG115] (Cbz-Leu-Leu-[Nva]-aldehyde) | prevented the downregulation | –
3 | Nc1ncn([C@H]2C[C@H](O)[C@@H](CO)O2)c(=O)n1 [5-AzaC, 5-aza-2′-deoxycytidine, reference compound] | – | reactivation of the 140 PRC2 targets in general, in comparison with 3-deazaneplanocin (MCF-7 cells; array, 5-AzaC 2 μM, TSA 100 nM): did not result in the significant reactivation; induction of TGFBI, KRT17 and FBX032 (real-time RT-PCR) [2]: not
4 | CCCC[C@@H](C=O)NC(=O)[C@H](CC(C)C)NC(=O)[C@H](CC(C)C)NC(C)=O [LLNL] (Ac-Leu-Leu-[Nle]-aldehyde) | prevented the downregulation | –
5 | B1 | – | number of genes upregulated ≧2-fold after siRNA treatment (MCF-7 cells; siRNA knockdown of PRC2 component): 572 genes
